We go through five compounds from paper PMC3432061, “Biochemical and Mass Spectrometric Characterization of Human N-Acylethanolamine-Hydrolyzing Acid Amidase Inhibition” (PLoS ONE, 2012).

A value given as a limit tells only on which side of the number the result lay.

Series [1] concerns the target T1, hNAAA (Homo sapiens, UniProt Q02083).
T1 construct: the active mature form of the enzyme is a heterodimer, consisting of a non-covalent complex of the α- and β-subunits; hexa-histidine (C); made in house; host or cells: HEK293 (stably transfected)
T1 sequence (Q02083 126-359 limits assumed): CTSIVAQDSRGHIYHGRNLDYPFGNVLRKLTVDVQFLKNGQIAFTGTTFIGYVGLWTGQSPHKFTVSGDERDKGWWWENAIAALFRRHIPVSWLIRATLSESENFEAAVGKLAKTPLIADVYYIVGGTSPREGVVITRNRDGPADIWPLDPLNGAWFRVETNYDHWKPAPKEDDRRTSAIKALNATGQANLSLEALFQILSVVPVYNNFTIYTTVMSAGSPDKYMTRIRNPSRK
T1 sequence (Q02083 29-125 limits assumed): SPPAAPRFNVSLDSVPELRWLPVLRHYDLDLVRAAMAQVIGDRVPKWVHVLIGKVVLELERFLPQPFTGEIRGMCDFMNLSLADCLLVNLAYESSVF
Description: Rapid dilution experiment with hNAAA (reversibility). It is filed as biochemical. The settings on record: AM6701: 100 nM for 120 min, twenty-fold dilution to 5 nM, up to 24 h.

Series [2] has as its target T1, hNAAA. Description: MALDI-TOF MS and MS/MS analysis of tryptic digest of inhibitor treated hNAAA. The settings on record: 10-fold molar excess of compound, 37°C, 2 hours, pH 4.5. As for the experimental part:
To 10 µg (0.2 nmol) of purified and activated NAAA in 18 µL of 100 mM citrate-sodium phosphate buffer (pH 4.5) 2 µL of a DMSO solution containing 2 nmol of the compound of interest were added or 2 µL DMSO. The inhibitor and DMSO treated enzyme solutions were incubated at 37°C for 2 hours and then desalted prior to digestion. These were desalted by re-concentrating 3 times to original volume after 25 fold dilution with 50 mM ammonium bicarbonate buffer, pH 8.0, using 10 kDa membrane Ultra-0.5 Centrifugal Filters (Millipore). The NAAA samples were incubated overnight at 37°C with MS-grade trypsin (“Trypsin Gold”, Promega) at a NAAA:trypsin mass to mass ratio of 100∶1. The tryptic digested NAAA was analyzed immediately or frozen at −80°C for future analysis.
0.5 µL of the trypsin digested NAAA was mixed with 0.5 µL α-cyano-4-hydroxycinnaminic acid matrix solution (5 mg/mL dissolved in 50% acetonitrile, 50% water, and 0.1% trifluoroacetic acid) and spotted onto an Opti-TOF 384-well plate insert. MALDI-TOF MS spectra were acquired on a 4800 MALDI TOF/TOF mass spectrometer (Applied Biosystems, Foster City, CA) fitted with a 200-Hz solid state UV laser (wavelength 355 nm). The spectra of the peptides were acquired in reflectron mode. The conditions used for the MS experiments and instrument calibration were performed as described by Zvonok et. al.

For series [3], the target named is T1, hNAAA. Description: 8 point fluorescent assay, hydrolysis of PAMCA by purified hNAAA. It counts as biochemical. The note with it: for IC50: purified hNAAA, 2 hours preincubation, fluorescent assay, PAMCA 10 µM. As for the experimental part:
We previously described the fluorogenic substrate N-(4-methyl coumarin)palmitamide (PAMCA), which is hydrolyzed by NAAA to the fluorescent compound 7-amino-4-methyl coumarin (AMC) and palmitic acid. For hNAAA inhibition we conducted three point concentration assays with compounds to determine their potencies and ranges of enzyme inhibition. Purified activated NAAA (final concentration of 0.25 µg/mL) was incubated in assay buffer made up to a total volume of 180 µL, followed by addition of the compound dissolved in 10 µL DMSO (along with DMSO neat for the control sample) with the final concentrations for each compound of 1, 10, and 100 µM, in triplicate on a 96 well plate. These samples were allowed to incubate for 15 min at room temperature and then 10 µL of a PAMCA stock solution in DMSO (final PAMCA concentration 10 µM) was added. After 5 minutes of agitation on a shaking plate, the reaction was allowed to proceed at 37°C for 30 minutes and enzyme activity was monitored and calculated as previously described.
(§1) To set up 8 point fluorescent and radioactive assays for each point, the compound in 45 µL DMSO and purified activated NAAA (final enzyme concentration of 0.25 µg/mL) in 810 µL of NAAA assay buffer were incubated for 2 hours in order for the covalent compounds to reach full inhibition. For the fluorescent assays, 190 µL of each of the above samples (in triplicate) were transferred to a 96 well plate, followed by addition of 10 µL of a PAMCA stock solution in DMSO for a final PAMCA concentration of 10 µM. After 5 minutes of agitation on a shaking plate, the reaction was allowed to proceed at 37°C for 30 minutes and enzyme activity was monitored and calculated as previously described. The complete description of the novel fluorescent 8 point assay to determine the IC50 value for compounds inhibiting hNAAA activity will be detailed elsewhere.

Series [4] deals with T1, hNAAA. The experiment in a line: Fluorometric assay to determine kinact/Ki for irreversible hNAAA inhibition. The settings on record: for kinact: PAMCA 12.4 µM = 2×Km, no preincubation, read for 120 minutes; for kinact/K I: second order rate constant. It is filed as biochemical. As for the experimental part: The k inact and K I values for covalent inhibitors were determined similar to Mileni et. al. […] The data for each inhibitor concentration ([I]) were fit to a first order equation (Eq. 1) shown below using KaleidaGraph (Synergy Software, Reading, PA) in order to determine k observed (k obs), where Ft is the fluorescence at time t, F 0 is the fluorescence at t = infinite time, F 1 is the total fluorescence change, and k obs is the first order rate constant for enzyme inactivation. To determine the inhibitor dissociation constant (K I) and the first order rate constant for enzyme inactivation at infinite inhibitor concentration (k inact), the k obs values for each [I] obtained above were fit to a curve using pro Fit software and a Levenberg-Marquardt algorithm according to Eq. 2, which simplifies to Eq. 3 at [S] = 2×K m as used in this experiment. [drawing 1] (1) [drawing 2] (2) [drawing 3] (3)

Another series deals with FAAH. Also noted: method as in PMID 22270809. The note with it: cited from earlier work.
Series [5] deals with T1, hNAAA. The experiment in a line: 8 point radioactive assay, hydrolysis of [14C]N-palmitoylethanolamine by purified hNAAA. It counts as biochemical. The note with it: 2 hours preincubation, PEA 25 µM. Here is the method: as §1
The 8 point radioactive assays, similar to that described by Saturnino et. al., [10] were performed by taking 95 µL of the enzyme-compound solution described above and adding a 5 µL solution of [^1,2 −14C]N-palmitoylethanolamine (10,000 c.p.m./sample) in DMSO, with a final PEA concentration of 25 µM. The reaction was performed for 30 minutes at 37°C and terminated by addition of 200 µL chloroform/methanol (1∶1, v/v). The aqueous layer containing the [^1,2 −14C]Ethanolamine was quantified by reading with a 1450 Microbeta Walluc Trilux Liquid Scintillation and Luminescence Counter. Inhibition constants were calculated using pro Fit software (Quantum Soft, Uetikon am See, Switzerland) and a Levenberg-Marquardt algorithm.

Series [6] addresses T1, hNAAA. Also noted: method as in PMID 22040171. The note with it: substrate of hNAAA; cited from earlier work.
The next series has as its system recombinant rat NAAA. The note with it: substrate heptadecenoylethanolamide, HEK293 cell lysate, LC/MS based assay; cited from earlier work.
Series [7] addresses T1, hNAAA. The experiment in a line: Lineweaver-Burk (double reciprocal) plot of hNAAA inhibition. It counts as biochemical.
In another series the target is T2, rFAAH (Rattus norvegicus, UniProt P97612).
T2 sequence (P97612 1-579): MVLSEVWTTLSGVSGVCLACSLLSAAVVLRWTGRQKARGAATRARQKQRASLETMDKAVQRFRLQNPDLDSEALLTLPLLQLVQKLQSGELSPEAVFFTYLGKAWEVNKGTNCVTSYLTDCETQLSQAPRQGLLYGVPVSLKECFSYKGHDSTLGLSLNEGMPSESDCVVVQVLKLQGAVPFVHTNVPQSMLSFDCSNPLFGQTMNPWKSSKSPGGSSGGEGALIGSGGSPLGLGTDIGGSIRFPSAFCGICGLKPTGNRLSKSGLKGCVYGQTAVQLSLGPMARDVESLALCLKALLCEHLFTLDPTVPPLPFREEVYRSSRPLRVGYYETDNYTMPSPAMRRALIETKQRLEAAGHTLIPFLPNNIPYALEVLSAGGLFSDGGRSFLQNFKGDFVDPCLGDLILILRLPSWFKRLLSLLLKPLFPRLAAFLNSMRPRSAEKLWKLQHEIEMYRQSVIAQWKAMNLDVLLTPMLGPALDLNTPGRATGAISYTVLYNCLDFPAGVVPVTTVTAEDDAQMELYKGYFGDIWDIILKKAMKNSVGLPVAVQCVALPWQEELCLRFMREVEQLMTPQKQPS
Description: rFAAH inhibition (selectivity). It counts as biochemical.

The next series has as its target T3, hMGL (Homo sapiens, UniProt Q99685).
T3 sequence (Q99685 1-303): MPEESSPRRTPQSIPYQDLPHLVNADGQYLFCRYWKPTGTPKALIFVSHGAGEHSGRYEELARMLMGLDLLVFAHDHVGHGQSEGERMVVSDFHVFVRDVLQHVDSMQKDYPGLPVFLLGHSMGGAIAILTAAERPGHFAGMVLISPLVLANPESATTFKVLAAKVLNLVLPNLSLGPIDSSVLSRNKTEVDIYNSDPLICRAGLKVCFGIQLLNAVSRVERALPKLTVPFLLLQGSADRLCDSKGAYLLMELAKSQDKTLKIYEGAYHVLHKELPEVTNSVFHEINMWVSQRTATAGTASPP
The experiment in a line: hMGL inhibition (selectivity). It counts as biochemical.

On to `CN(C)C(=O)n1nnc(Cc2ccc(-c3ccccc3)cc2)n1` [AM6701, 5-((biphenyl-4-yl)methyl)-N,N-dimethyl-2H-tetrazole-2-carboxamide], for which the “Recovery of enzyme activity after rapid dilution” value (from here on “Recovery of enzyme activity”) on hNAAA [1] is reported as “no recovery of enzyme activity”. Moreover, the “Covalent modification of hNAAA seen by MALDI-TOF MS of tryptic digest” value (from here on “Covalent modification of hNAAA seen”) on hNAAA [2] was “carbamylation of the N-terminal cysteine”. Besides, the “Decrease of IC50 on extension of preincubation time to 120 min” value on hNAAA [3] (hNAAA, data not presented) is “more than 50 fold”. For the same compound, the IC50 (commonly the midpoint of a concentration-inhibition curve) at hNAAA [3] is 7.7 ± 0.2 nM; in the series with FAAH it was 1.2 nM; on hNAAA [5], 7.2 ± 2.5 nM. Moreover, the kinact (in general, the maximal first-order rate at which the target is inactivated) on hNAAA [4] is 0.0007 s⁻¹. In addition, the “kinact/K I” value on hNAAA [4] turned out to be 55000 M⁻¹ s⁻¹.

Consider `CCCCCCCCCCCCCCCC(=O)NCCO` [PEA, N-palmitoylethanolamine], for which the Michaelis constant (Km) (commonly the substrate concentration at which the rate is half of its maximum) on hNAAA [6] is 21 µM.

As to `CCCCCCCCCCCCCCCC(=O)Nc1ccc2c(C)cc(=O)oc2c1` [PAMCA, N-(4-methylcoumarin)palmitamide], at hNAAA [6], the Km is 6.2 µM.

Regarding `O=C(N[C@H]1COC1=O)OCc1ccccc1` [N-Cbz-serine β-lactone, N-Benzyloxycarbonyl-L-serine β-lactone, reference compound], the “Recovery of enzyme activity” value at hNAAA [1] is “slow regeneration of enzyme catalytic activity”. In addition, the figures for the IC50 in the series on recombinant rat NAAA, at hNAAA [3] and at hNAAA [5] were 2960 ± 300 nM, 1700 ± 200 nM and 1900 ± 500 nM, respectively. For the same compound, the “Covalent modification of hNAAA seen” value on hNAAA [2] is reported as “Cys126 modified by the inhibitor”. Besides, the kinact at hNAAA [4] was 0.000383 s⁻¹. Further, the “kinact/K I” value at hNAAA [4] turned out to be 290 M⁻¹ s⁻¹.

For `CCCCCCCCCCCCCCCN=C=S` [AM9023, 1-isothiocyanatopentadecane], the “Recovery of enzyme activity” value on hNAAA [1] is recorded as “fully recovered”. Further, the “Covalent modification of hNAAA seen” value at hNAAA [2] is on record as “identical”. Further, the “Type of inhibition (Lineweaver-Burk plot)” value at hNAAA [7] is “competitive type inhibitor”. Also, on hNAAA [3] (hNAAA), the “Effect of longer pre-incubation on IC50” value is “unaffected”. Besides, the IC50 against hNAAA [3] is 350 ± 70 nM; against rFAAH, above 10000 nM; against hMGL, above 10000 nM; at hNAAA [5], 600 ± 130 nM.
